Laboratory results as given in article PMC6270099, “Synthesis, Biological Evaluation, and Pharmacokinetic Study of Novel Liguzinediol Prodrugs” (Molecules, 2013).
Where two headings read alike, the source gives them in different places. Marks after values point to notes of the source that are not given here.

How the values were obtained:
[1] = Metabolic stability and formation of parent compound in rat liver microsomes; assay type: in vitro ADME; conditions: NADPH, 37 °C, up to 3 h
Description: Analysis was performed by using a Waters Alliance HPLC system (2695 pump, and 2489 PDA detector) with the following chromatographic parameters: wavelength, 278 nm; injection volume, 20 μL; run time, 20 min. The chromatographic separation was performed on an Phecda C18 (4.6 mm × 250 mm, 5 μm) column with a gradient elution of methanol and deionized water. Flow rate was 1.0 mL/min at 30 °C.
Rat liver microsomes were prepared in house by a previously published method and used immediately in the experiments. Protein concentrations were determined by a Lowry protein assay.
Rat liver microsomes (2.0 mg/mL protein concentration), NADPH (1.0 mM solution, Sigma, Shanghai, China), Tris-HCl buffer (50 mM, pH 7.4, Sigma, Shanghai, China), test compound in aqueous solution (30 mM, 20 μL).
Tris-HCl buffer (780 μL), 1.0 mM NADPH solution (100 μL), and 100 μL of rat liver microsomes were mixed and vortexed at 37 °C for 5 min. To this mixture, 30 mM drug in aqueous solution (20 μL) was injected and vortexed well. Sample (100 μL) was immediately taken out (0 min) and transferred to the centrifuge tube containing ice cold dissolvent (ethanol-ethyl acetate = 1:4 v/v, 1 mL). […] The percentage of prodrug remaining was calculated according to the following equation: % remaining = peak area at respective time (min)/peak area at 0 min × 100% (2)

[2] = design: method as in earlier work; conditions: cited from earlier work; for AUC0–t / AUC0–∞ / Cmax / Tmax / t1/2: rat
[3] = system: isolated Langendorff-perfused rat hearts; test: Ex vivo Langendorff-perfused rat heart, cardiac performance; conditions: for ∆% +dP/dtmax / ∆% LVDP / ∆% −dP/dtmax: increase vs. control; for LVDP: isolated rat heart, mean ± SD, n = 6
Description: The cardiac contractility and safety of prodrugs 3–5 were evaluated on the myocardium in normal isolated rat hearts with LZDO as a positive control. Prodrugs 3–5 exerted positive inotropic effects in a dose-dependent manner. The increased rate in left ventricular developed pressure (LVDP, accepted as contractile force), +dP/dtmax (used as an index of contractility), the maximum rate of pressure decrease of the left ventricle ([…], used as an index of diastolic function) and the heart rate (HR, used as an index of heart muscle oxygen consumption) of these compounds vs. control are listed in Table 1.
All commercial reagents and solvents were used without further purification unless otherwise specified. Melting points were determined using a model Buchi B-450 apparatus. ESI-MS were recorded on a TOF mass spectrometer (Applies-Biosystem Mariner). IR spectra were acquired by using a THERMO IR spectrometer Model Nicolet-100. ^1H- and ^13C-NMR spectra (500/125 MHz) were recorded on a Bruker Advance 500 spectrophotometer. Mass spectra were recorded on a ZAB-HS mass spectrometer and are reported as m/z values. HPLC analysis was conducted on a Waters 2695 HPLC instrument equipped with a UV detector (model 2489). LZDO and prodrugs 3–5 were analysed by HPLC, and their purity was confirmed to be greater than 98.0%. In vitro metabolic stability analysis was conducted by a HPLC method, using stock standard solutions of LZDO and prodrugs that were prepared in water at a concentration of 30 mM. The positive inotropic effects on the myocardium of LZDO and prodrugs 3–5 in vitro were evaluated on Langendorff-perfused hearts isolated from normal Sprague-Dawley rats. A HPLC method was applied to measure the rat plasma concentrations of LZDO and prodrug 3 after intragastric administration of prodrug 3 in the rats.
Sprague-Dawley adult male rats weighing 260–320 g were anaesthetised by intraperitoneal administration of 20% urethane (1.2 g/kg). The hearts were quickly removed and placed into an ice-cold modified buffer until contractions ceased. The heart was cleaned of surrounding tissues, mounted on the aortic cannula of the Langendorff perfusion system apparatus, and perfused with oxygenated buffer (mM): NaCl 117, KCl 5.7, CaCl2 1.8, MgCl2 1.7, NaHCO3 4.4, NaH2PO4 1.5, HEPES 20 and glucose 11. The buffer was equilibrated with 95% O2 and 5% CO2 and adjusted to pH 7.4 with NaOH before it entered the heart. An epicardial electrogram was registered using two stainless steel electrodes, one attached to the apex of the heart and the other to the aortic cannula. To obtain an isovolumetrically beating preparation, a latex balloon filled with water and connected by a catheter to a transducer was inserted through the left atrium into the left ventricle and inflated to provide an end-diastolic pressure between 8 and 12 mm Hg. Before each experimental protocol was initiated, the isolated hearts were set at a mean arterial pressure of 60–80 mm Hg and allowed to stabilise at 37 °C for 40–60 min. The isolated rat hearts were then perfused in sequence with 1, 10, and 100 μM of LZDO and prodrugs 3–5 in each group. A RM6240B/C four channel physiological recording instrument (Chengdu Instrument Factory, Chengdu, China) was used for continuous recording of LVSP, LVEDP, HR (derived from electrogram), +dP/dtmax and −dP/dtmax throughout the experiments. The criteria for established stability were LVDP > 50 mmHg, +dP/dtmax > 1,600 mmHg·s^−1, heart rate > 180 beats·min^−1 and normal sinus rhythm. The hearts were not studied if they had weak contractility (+dP/dtmax < 1,600 mmHg·s^−1) and severe arrhythmia. Diastolic balloon pressure was maintained at 8 mmHg. LVDP was calculated as the difference between the systolic and diastolic pressures. The results are expressed as the mean value of hemodynamic variables (n = 6). Statistical analysis was performed using SPSS for Windows (version 13.0). Data were analyzed by One-way ANOVA. […]

## Cc1nc(CO)c(C)nc1CO [1a, Liguzinediol]
[1]
  metabolic stability: fairly stable
[2]; LZDO 10 mg·kg^−1 i.g.
  AUC0–t: 16740 ± 8900 ng·h/mL
  AUC0–∞: 17080 ± 8990 ng·h/mL
  Cmax: 8580 ± 2660 ng/mL
  Tmax: 0.29 ± 0.10 h
  t1/2: 2.21 ± 1.11 h
[2]; LZDO 20 mg·kg^−1 i.g.
  AUC0–t: 34840 ± 24640 ng·h/mL
  AUC0–∞: 35930 ± 24080 ng·h/mL
  Cmax: 17020 ± 5500 ng/mL
  Tmax: 0.29 ± 0.10 h
  t1/2: 2.57 ± 2.14 h
[2]; LZDO 50 mg·kg^−1 i.g.
  AUC0–t: 92850 ± 64100 ng·h/mL
  AUC0–∞: 94820 ± 66880 ng·h/mL
  Cmax: 49330 ± 10500 ng/mL
  Tmax: 0.29 ± 0.10 h
  t1/2: 1.78 ± 0.57 h
[2]; after intragastric administration, rats
  half-life: about 2 h
[3]; 1 μM
  +dP/dtmax: 1,836 ± 121 mmHg/s
  HR: 186 ± 29 beat·min^−1
  −dP/dtmax: −1,175 ± 125 mmHg/s
  ∆% +dP/dtmax: 9.4 ± 8.1%
  ∆% LVDP: 19.4 ± 11.0%
  ∆% −dP/dtmax: 11.1 ± 10.0%
  LVDP: 60 ± 5 ^b mmHg
[3]; 10 μM
  +dP/dtmax: 2,125 ± 242 ^bc mmHg/s
  HR: 209 ± 21 beat·min^−1
  −dP/dtmax: −1,371 ± 186 ^bc mmHg/s
  ∆% +dP/dtmax: 26.5 ± 13.4%
  ∆% LVDP: 45.6 ± 9.0%
  ∆% −dP/dtmax: 30.3 ± 0.3%
  LVDP: 73 ± 4 ^bd mmHg
[3]; 100 μM
  +dP/dtmax: 2,702 ± 287 ^bdf mmHg/s
  HR: 193 ± 15 beat·min^−1
  −dP/dtmax: −1,911 ± 200 ^bdf mmHg/s
  ∆% +dP/dtmax: 60.9 ± 17.3%
  ∆% LVDP: 76.3 ± 12.3%
  ∆% −dP/dtmax: 82.0 ± 27.9%
  LVDP: 88 ± 3 ^bdf mmHg
